Results published in patent US9556179B2 (BRISTOL-MYERS SQUIBB COMPANY, priority 2012, dated 2017).

What was measured:
CK1δ = CK1δ (Homo sapiens (Human), UniProt P48730); assay: CK1δ kinase assay (Caliper LABCHIP electrophoretic separation of fluoresceinated peptide substrate and product); type: biochemical; conditions: 200 pM enzyme, 50 μM ATP, 22 hours at room temperature
Method in brief: (§1)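 Reactions ran 22 hours at room temperature and were stopped with EDTA. Phosphorylated product and unphosphorylated substrate were then separated electrophoretically. Compounds were tested at eleven concentrations, and IC50 values came from non-linear regression.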

CK1ε = CK1ε (Homo sapiens (Human), UniProt P49674); assay: CK1ε kinase assay (Caliper LABCHIP electrophoretic separation of fluoresceinated peptide substrate and product); type: biochemical; conditions: 200 pM enzyme, 50 μM ATP, 22 hours at room temperature
Method in brief: as §1

Chain of CK1δ (P48730 whole entry): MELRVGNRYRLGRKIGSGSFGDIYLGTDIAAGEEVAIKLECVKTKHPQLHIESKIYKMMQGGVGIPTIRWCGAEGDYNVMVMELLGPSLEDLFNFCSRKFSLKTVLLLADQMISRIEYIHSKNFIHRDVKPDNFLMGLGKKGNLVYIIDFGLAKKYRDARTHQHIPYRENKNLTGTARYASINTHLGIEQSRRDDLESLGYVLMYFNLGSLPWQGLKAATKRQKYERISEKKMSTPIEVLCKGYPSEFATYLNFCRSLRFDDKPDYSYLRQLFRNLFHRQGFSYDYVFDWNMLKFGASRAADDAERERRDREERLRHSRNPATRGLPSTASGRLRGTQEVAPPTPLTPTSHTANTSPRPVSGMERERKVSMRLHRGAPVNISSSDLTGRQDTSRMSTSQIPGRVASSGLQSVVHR
Chain of CK1ε (P49674 whole entry): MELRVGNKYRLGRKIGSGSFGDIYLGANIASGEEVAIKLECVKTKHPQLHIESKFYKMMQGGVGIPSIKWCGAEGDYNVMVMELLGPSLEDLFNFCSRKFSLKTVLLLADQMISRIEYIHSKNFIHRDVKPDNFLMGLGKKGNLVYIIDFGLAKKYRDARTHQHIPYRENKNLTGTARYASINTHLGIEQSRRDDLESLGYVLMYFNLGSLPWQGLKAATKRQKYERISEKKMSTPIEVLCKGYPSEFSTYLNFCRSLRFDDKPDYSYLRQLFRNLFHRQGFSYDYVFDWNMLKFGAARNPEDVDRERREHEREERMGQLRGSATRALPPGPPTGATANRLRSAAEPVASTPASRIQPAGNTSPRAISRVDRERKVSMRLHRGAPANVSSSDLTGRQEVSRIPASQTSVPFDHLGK

| SMILES | IC50 (CK1δ) | IC50 (CK1ε) |
| --- | --- | --- |
| Cn1cnc(-c2ccc(F)cc2)c1-c1ccc2nc(NC(=O)C(C)(C)C)cn2n1 [Compound 283, N-(6-(4-(4-fluorophenyl)-1-methyl-1H-imidazol-5-yl)imidazo[1,2-b]pyridazin-2-yl)pivalamide] | 0.545 nM | 7.62 nM |
| Cc1nc(-c2ccncc2)sc1C(=O)Nc1cn2nc(-c3c(-c4ccc(F)cc4)nc(C)n3C)ccc2n1 [Compound 308, N-(6-(4-(4-fluorophenyl)-1,2-dimethyl-1H-imidazol-5-yl)imidazo[1,2-b]pyridazin-2-yl)-4-methyl-2-(pyridin-4-yl) thiazole-5-carboxamide] | 0.322 nM | 5.26 nM |
| NC(=O)CN1CCC(n2c(C3CC3)nc(-c3ccc(F)cc3)c2-c2ccc3nc(NC(=O)c4ccnc(F)c4)cn3n2)CC1 [Compound 121, N-(6-(1-(1-(2-amino-2-oxoethyl)piperidin-4-yl)-2-cyclopropyl-4-(4-fluorophenyl)-1H-imidazol-5-yl)imidazo [1,2-b]pyridazin-2-yl)-2-fluoroisonicotinamide] | 0.489 nM | 10.8 nM |
| Cc1nc(-c2ccc(F)cc2)c(-c2ccc3nc(NC(=O)c4cn[nH]c4)cn3n2)n1C [Compound 364, N-(6-(4-(4-fluorophenyl)-1,2-dimethyl-1H-imidazol-5-yl)imidazo[1,2-b]pyridazin-2-yl)-1H-pyrazole-4-carboxamide] | 0.566 nM | 4.01 nM |
| O=C(Nc1cn2nc(-c3c(-c4ccc(F)cc4)ncn3C3CCCCC3)ccc2n1)c1ccnc(F)c1 [Compound 257, N-(6-(1-cyclohexyl-4-(4-fluoro-phenyl)-1H-imidazol-5-yl)imidazo[1,2-b]pyridazin-2-yl)-2-fluoroisonicotinamide] | 0.325 nM | 2.29 nM |
| CC(C)(C)C(=O)Nc1cn2nc(-c3c(-c4ccc(F)cc4)ncn3CCc3cccnc3)ccc2n1 [Compound 282, N-(6-(4-(4-fluorophenyl)-1-(2-(pyridin-3-yl)ethyl)-1H-imidazol-5-yl)imidazo[1,2-b]pyridazin-2-yl)pivalamide] | 0.766 nM | 13.2 nM |
| N#CCCN1CCC(n2c(C3CC3)nc(-c3ccc(F)cc3)c2-c2ccc3nc(NC(=O)c4cccc(-c5cccnc5)c4)cn3n2)CC1 [Compound 136, N-(6-(1-(1-(2-cyanoethyl)piperidin-4-yl)-2-cyclopropyl-4-(4-fluorophenyl)-1H-imidazol-5-yl)imidazo[1,2-b]pyridazin-2-yl)-3-(pyridin-3-yl)benzamide] | 0.514 nM | 8.9 nM |
| O=C(Nc1cn2nc(-c3c(-c4ccc(F)cc4)nc4ccccn34)ccc2n1)c1cncc(-c2cccs2)c1 [Compound 212, N-(6-(2-(4-fluorophenyl)imidazo[1,2-a]pyridin-3-yl)imidazo[1,2-b]pyridazin-2-yl)-5-(thiophen-2-yl) nicotinamide] | 0.64 nM | 5.98 nM |
| Cc1nc(-c2ccc(F)cc2)c(-c2ccc3nc(NC(=O)c4ccncn4)cn3n2)n1C [Compound 384, N-(6-(4-(4-fluorophenyl)-1,2-dimethyl-1H-imidazol-5-yl)imidazo[1,2-b]pyridazin-2-yl)pyrimidine-4-carboxamide] | 8.51 nM | 29.1 nM |
| O=C(Nc1cn2nc(-c3c(-c4ccc(F)cc4)ncn3C3CCN(C(=O)c4ccncc4)CC3)ccc2n1)c1ccnc(F)c1 [Compound 56, 2-fluoro-N-(6-(4-(4-fluorophenyl)-1-(1 isonicotinoylpiperidin-4-yl)-1H-imidazol-5-yl)imidazo[1,2-b]pyridazin-2-yl)isonicotinamide] | 0.13 nM | 0.297 nM |
| COc1cccc2[nH]c(C(=O)Nc3cn4nc(-c5c(-c6ccc(F)cc6)nc(C)n5C)ccc4n3)cc12 [Compound 347, N-(6-(4-(4-fluorophenyl)-1,2-dimethyl-1H-imidazol-5-yl)imidazo[1,2-b]pyridazin-2-yl)-4-methoxy-1H-indole-2-carboxamide] | 0.379 nM | 1.19 nM |
